Measured values: patent US20210130826A1, “METHODS OF MODULATING ANTISENSE ACTIVITY” (IONIS PHARMACEUTICALS, INC., priority 2018, published 2021)

How the values were obtained:
Malat-1 [1] = test: Malat-1 RNA by RT-qPCR in MHT cells; autophagy modulator, then oligonucleotide by free uptake; assay type: cell-based, mouse; settings: for effect of autophagy modulator on modified oligonucleotide activity (in words): MOE gapmer 399462, relative to DMSO; for effect of autophagy modulator on antisense activity (in words): cEt gapmer 556089, relative to DMSO
Method: MHT cells (a mouse hepatocellular carcinoma cell line) were plated at 20,000 cells/well and treated with DMSO (control) or an autophagy modulator for 24 hours at the concentrations indicated in Table 2 below. 3-MA, BafA1, AZD8055, and leupeptin are […]. […] Fourteen hours after the addition of autophagy modulators, 10 μM of a modified control oligonucleotide or of a modified antisense oligonucleotide was added by free uptake for ten hours. The modified oligonucleotides, shown in Table 1 below, are 3-10-3 cEt gapmers in which every internucleoside linkage is a phosphorothioate internucleoside linkage. The three 5′-terminal nucleosides and the three 3′-terminal nucleosides of each oligonucleotide each comprise a cEt modified sugar moiety. The remaining ten nucleosides of each oligonucleotide each comprise an unmodified, 2′-deoxy sugar moiety.
Using the primer probe sets described in Table 3 below, RT-qPCR analysis was performed to detect RNA levels of Malat-1, shown in Table 4 and markers of autophagy, (Rab7, LAMP2, Atg7, ULK1, ULK2, Atg5, Beclin, and c-Jun), shown in Table 5. Results were normalized to cyclophilin A levels. To control for global effects of autophagy modulators on gene expression, Malat-1 RNA levels after treatment with an antisense oligonucleotide and an autophagy modulator were normalized to Malat-1 RNA levels in cells treated with control Compound No. 549148 and the same autophagy modulator.
MHT cells were plated at 20,000 cells/well and treated with DMSO (control) or an autophagy modulator for 24 hours, at the concentrations indicated Table 7 below. Fourteen hours after the addition of autophagy modulator, control or antisense oligonucleotides (see Table 6) were added at 1 μM, 2.5 μM, 5 μM, or 10 μM by free uptake for ten hours. The modified oligonucleotides, shown in Table 6 below, are 5-10-5 MOE gapmers in which every internucleoside linkage is a phosphorothioate internucleoside linkage. The five 5′-terminal nucleosides and the five 3′-terminal nucleosides of each oligonucleotide each comprise a 2′-MOE modified sugar moiety. The remaining ten nucleosides of each oligonucleotide each comprise an unmodified, 2′-deoxy sugar moiety.
RT-qPCR analysis was performed to detect RNA levels of Malat-1 using primer probe set 15877 (described in Example 1). In order to control for global effects of autophagy modulators on gene expression, Malat-1 RNA levels after treatment with an antisense oligonucleotide and an autophagy modulator were normalized to Malat-1 RNA levels in cells treated with control Compound No. 141923 and the same autophagy modulator. Each table below represents results from an individual assay.

Atg7 = Atg7 mRNA in mouse liver by RT-qPCR; assay type: in vivo; settings: Table 35; mouse liver 24 h; oligonucleotide 5 mg/kg; rapamycin 5 mg/kg at 0, 12, 22 h
Method: The following experiments were performed to determine if the effects of autophagy modulators on antisense activity in vitro can be observed in vivo. […] Mice were sacrificed at 24 hours after administration of the modified oligonucleotide and tissues were collected for analysis. […] Atg7 mRNA levels are a marker of the induction of autophagy in treated mouse livers. Results are presented as percent change of RNA, relative to PBS control treated with DMSO, normalized to mouse cyclophilin A measured using mouse primer probe set Cyclophilin-A (forward sequence [NT], designated herein as SEQ ID NO: 38; reverse sequence [NT], designated herein as SEQ ID NO: 39; probe sequence [NT], designated herein as SEQ ID NO: 40). […] Following administration of modified oligonucleotide, groups of mice were either allowed free access to chow (control) or fasted overnight (16 hr fast). Mice were sacrificed at 16 hours after administration of the modified oligonucleotide and tissues were collected for analysis. […] Atg7 mRNA levels are a marker of the induction of autophagy in treated mouse livers. Results are presented in Table 33 relative to mice treated with PBS and allowed normal access to chow. […] Mice were sacrificed at 24 hours after administration of the modified oligonucleotide and tissues were collected for analysis. […]

Malat-1 [2] = test: MALAT-1 RNA in mouse liver by RT-qPCR; assay type: in vivo; settings: Table 35; mouse liver 24 h; oligonucleotide 5 mg/kg; rapamycin 5 mg/kg at 0, 12, 22 h
Method: The following experiments were performed to determine if the effects of autophagy modulators on antisense activity in vitro can be observed in vivo. […] Mice were sacrificed at 24 hours after administration of the modified oligonucleotide and tissues were collected for analysis. […] Atg7 mRNA levels are a marker of the induction of autophagy in treated mouse livers. Results are presented as percent change of RNA, relative to PBS control treated with DMSO, normalized to mouse cyclophilin A measured using mouse primer probe set Cyclophilin-A (forward sequence [NT], designated herein as SEQ ID NO: 38; reverse sequence [NT], designated herein as SEQ ID NO: 39; probe sequence [NT], designated herein as SEQ ID NO: 40). […] Following administration of modified oligonucleotide, groups of mice were either allowed free access to chow (control) or fasted overnight (16 hr fast). Mice were sacrificed at 16 hours after administration of the modified oligonucleotide and tissues were collected for analysis. […] Atg7 mRNA levels are a marker of the induction of autophagy in treated mouse livers. Results are presented in Table 33 relative to mice treated with PBS and allowed normal access to chow. […] Mice were sacrificed at 24 hours after administration of the modified oligonucleotide and tissues were collected for analysis. […] Atg7 mRNA levels are a marker of the induction of autophagy in treated mouse livers. […] RNA was extracted from liver tissue for real-time RTPCR analysis of MALAT1 RNA expression. Primer probe set 15877 was used to measure mouse MALAT1 RNA levels. Results are presented as percent change of RNA, relative to PBS control, normalized to mouse cyclophilin A measured using mouse primer probe set Cyclophilin-A. […] RNA was extracted from liver tissue for real-time RTPCR analysis of MALAT1 RNA expression. Primer probe set 15877 was used to measure mouse MALAT1 RNA levels. Results are presented as percent change of RNA, relative to PBS control, normalized to mouse cyclophilin A measured using mouse primer probe set Cyclophilin-A.

p62 = test: Liver protein analysis in mice: p62; assay type: in vivo; settings: Table 34; mouse liver 24 h; oligonucleotide 5 mg/kg (or PBS); Treatment Rapamycin 5 mg/kg at 0, 12, 22 h
Method: (§1) The following experiments were performed to determine if the effects of autophagy modulators on antisense activity in vitro can be observed in vivo. Groups of 3-4 8-week-old male C57bl/6J mice were administered 5 mg/kg control oligonucleotide 141923, or 5 mg/kg antisense oligonucleotide 399462. Following administration of modified oligonucleotide, mice were administered 1% DMSO or 5 mg/kg AZD8055 in 1% DMSO at three time points over 24 hours: at the time of administration of the modified oligonucleotide, and 12 and 22 hours after administration of the modified oligonucleotide. A group of control mice was administered PBS at time 0 and 1% DMSO at 0, 12, and 22 hours. Mice were sacrificed at 24 hours after administration of the modified oligonucleotide and tissues were collected for analysis.
(§2) Autophagy activation was confirmed in livers by determining suppression of mTOR kinase activity (pS6/S6 levels), determining an increased LC3B II/I ratio (a marker for the formation of autophagosomes), and determining p62 degradation (related to the clearance of autophagosomes). Protein analysis was carried out on liver tissue using standard procedures. All proteins were normalized to α-tubulin. Phospho-S6 Ribosomal Protein (Ser240/244) (2215S), and S6 Ribosomal Protein (2217S) antibodies were obtained from Cell Signaling Technology. The antibody against LC3B (ab48394) was purchased from Abcam. […]

[3] = system: mTOR kinase activity (pS6/S6 levels); test: Liver protein analysis in mice: pS6/S6; assay type: in vivo; settings: Table 34; mouse liver 24 h; oligonucleotide 5 mg/kg (or PBS); Treatment Rapamycin 5 mg/kg at 0, 12, 22 h
Method: The following experiments were performed to determine if the effects of autophagy modulators on antisense activity in vitro can be observed in vivo. […] Following administration of modified oligonucleotide, mice were administered 1% DMSO or 5 mg/kg AZD8055 in 1% DMSO at three time points over 24 hours: at the time of administration of the modified oligonucleotide, and 12 and 22 hours after administration of the modified oligonucleotide. A group of control mice was administered PBS at time 0 and 1% DMSO at 0, 12, and 22 hours. Mice were sacrificed at 24 hours after administration of the modified oligonucleotide and tissues were collected for analysis.
Protein analysis was carried out on liver tissue using standard procedures. All proteins were normalized to α-tubulin. […] The antibody against LC3B (ab48394) was purchased from Abcam. […] Antibody against P62 (GP62-C) was purchased from Progen.
A group of control mice was administered PBS at time 0 and 1% DMSO at 0, 12, and 22 hours. Mice were sacrificed at 24 hours after administration of the modified oligonucleotide and tissues were collected for analysis. […]

LC3B = test: Liver protein analysis in mice: LC3B II/I ratio; assay type: in vivo; settings: Table 34; mouse liver 24 h; oligonucleotide 5 mg/kg (or PBS); Treatment Rapamycin 5 mg/kg at 0, 12, 22 h
Method: as §1, §2

Malat-1 [4] = test: Malat-1 RNA by RT-qPCR in A431 cells; assay type: cell-based, human; settings: MOE gapmer
Method: RT-qPCR analysis was performed to detect RNA levels of Malat-1 using primer probe set RTS2736. Results were normalized to cyclophilin A levels (measured using HTS3936). […] Each table below represents results from an individual assay.

Row | SMILES | effect of autophagy modulator on modified oligonucleotide activity (in words) (Malat-1 [1]) | effect of autophagy modulator on modified oligonucleotide activity (in words) (Malat-1 [4]) | effect of autophagy modulator on antisense activity (in words) (Malat-1 [1]) | other results
1 | CCOC(=O)[C@H]1O[C@@H]1C(=O)N[C@@H](CC(C)C)C(=O)NCCC(C)C [E64D] | reduced activity of modified oligonucleotide | – | – | –
2 | CO[C@H]1C[C@@H]2CC[C@@H](C)[C@@](O)(O2)C(=O)C(=O)N2CCCC[C@H]2C(=O)O[C@H]([C@H](C)C[C@@H]2CC[C@@H](O)[C@H](OC)C2)CC(=O)[C@H](C)/C=C(\C)[C@@H](O)[C@@H](OC)C(=O)[C@H](C)C[C@H](C)/C=C/C=C/C=C/1C [Rapamycin] | – | – | – | Atg7 level (% relative to PBS/DMSO mice) (Atg7): 111%; Malat-1 level (% relative to PBS/DMSO mice) (Malat-1 [2]): 89%; P62 (p62): 0.8; pS6/S6 ratio [3]: 0.7; LC3B II/I ratio (LC3B): 1.3
3 | CC[C@]1(O)C[C@@H]2CN(CCc3c([nH]c4ccccc34)[C@@](C(=O)OC)(c3cc4c(cc3OC)N(C)[C@H]3[C@@](O)(C(=O)OC)[C@H](OC(C)=O)[C@]5(CC)C=CCN6CC[C@]43[C@@H]65)C2)C1 [Vinblastine] | significantly enhanced modified oligonucleotide activity | – | – | –
4 | CO/C1=C\C(C)=C\[C@@H](C)[C@@H](O)[C@@H](C)C/C(C)=C/C=C/[C@H](OC)[C@@H]([C@@H](C)[C@@H](O)[C@H](C)[C@@]2(O)C[C@@H](O)[C@H](C)[C@@H](C(C)C)O2)OC1=O [BafA1, Bafilomycin A1] | significantly enhanced modified oligonucleotide activity | significantly enhanced modified oligonucleotide activity | significantly enhanced antisense activity | –
5 | CC(C)C(=O)CN1c2nc(N3CCOC[C@H]3C)cc(=O)n2CC[C@H]1C(F)(F)F [VPS34-IN2] | significantly enhanced modified oligonucleotide activity | significantly enhanced modified oligonucleotide activity | – | –
6 | CC(=O)N[C@@H](CC(C)C)C(=O)N[C@@H](CC(C)C)C(=O)N[C@H](C=O)CCCNC(=N)N [Leupeptin] | significantly enhanced modified oligonucleotide activity | significantly enhanced modified oligonucleotide activity | significantly enhanced antisense activity | –
7 | Cn1cnc(N)c2ncnc1-2 [3-MA, 3-methyladenine] | significantly enhanced modified oligonucleotide activity | – | significantly enhanced antisense activity | –
